We go through 24 molecules from US20250320227A1, “MACROCYCLIC OREXIN RECEPTOR AGONISTS AND USES THEREOF” (Jazz Pharmaceuticals Ireland Limited, priority 2022, published 2025).

Structures are written as SMILES.

In the assay the target is T1, human recombinant OX2 (hOX2) receptors expressed in CHO cells (Homo sapiens, UniProt O43614).
T1 construct: host or cells: CHO cells (hOX2-CHO)
T1 sequence (O43614 1-444): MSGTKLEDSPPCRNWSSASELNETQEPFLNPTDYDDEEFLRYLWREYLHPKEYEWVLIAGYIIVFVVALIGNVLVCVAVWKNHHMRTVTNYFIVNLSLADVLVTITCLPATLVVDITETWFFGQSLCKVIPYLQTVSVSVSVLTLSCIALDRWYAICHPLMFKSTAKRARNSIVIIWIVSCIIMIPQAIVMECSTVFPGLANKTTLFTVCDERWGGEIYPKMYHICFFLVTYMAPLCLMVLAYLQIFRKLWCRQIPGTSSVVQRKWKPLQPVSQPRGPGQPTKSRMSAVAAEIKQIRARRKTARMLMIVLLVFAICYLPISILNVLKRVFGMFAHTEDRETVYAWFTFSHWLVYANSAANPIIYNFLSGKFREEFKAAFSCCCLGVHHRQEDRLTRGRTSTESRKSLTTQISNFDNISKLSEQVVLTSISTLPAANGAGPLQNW
Nature of the assay: IP-1 accumulation assay (IP-One HTRF) in hOX2-CHO cells. It counts as cell-based. The following applies: 60 min incubation at 37° C., mean of at least two independent experiments, read-out: EC50_OX2R Category. As for the experimental part: The accumulation of Inositol-1 Monophosphate (IP-1) was measured using IP-One HTRF® Terbium cryptate based assay (Cisbio) in human recombinant OX1 (hOX1) and at OX2 (hOX2) receptors expressed in CHO cells (DiscoverX) according to the manufacturer's instructions for cells tested in suspension.
hOX1-CHO and hOX2-CHO cells were seeded into white 384-well plates at a density of 20,000 cells/well in Hank's Balanced Salt Solution (HBSS) containing 20 mM HEPES pH 7.4, 50 mM, LiCl and 0.1% and Bovine Serum Albumin (BSA).
Compounds of disclosure were tested in an 11 points concentration response curve (CRC) serially diluted in neat DMSO at 200 fold concentrations and added by Echo acoustic liquid handling (Labcyte) to the cells (0.5% DMSO final in the assay). After 60 min of incubation at 37° C. detection reagents, IP1-d2 tracer and anti-IP1-cryptate were diluted in lysis buffer according to the manufacturer's descriptions and added to the cells.
Following 60 min incubation at room temperature, time-resolved fluorescence (HTRF) was measured at 615 nm and 665 nm by Envision Multilabel reader (Perkin Elmer) and the HTRF ratio (A665/A615×10^4) was calculated.
The IP-1 accumulation response was expressed as percentage of the maximal OX-A response.
Curve fitting and EC50 estimations were carried out using a four-parameter logistic model using XLfit Software. Mean data of EC50 are calculated from at least two independent experiments performed in duplicates
On the technique in general: Time-resolved FRET reads energy transfer from a long-lived donor to a nearby acceptor.
With `CN1CCOc2ccccc2-c2cccc(c2F)CC2N(CCCC23COCC(=O)N3)C1=O` (racemic) [Example 63, Rel-(3S,18′S)-24′-fluoro-11′-methyl-8′-oxa-11′,13′-diazaspiro[morpholine-3,17′-tetracyclo[18.3.1.0^2,70.0^13,18]tetracosane]-1′(24′),2′(7′),3′,5′,20′,22′-hexaene-5,12′-dione], the EC50 is 1000 to 10000 nM.

Turning to `O=C1COCC2(CCCN3C(=O)OCCOc4ccccc4-c4cccc(c4F)CC32)N1` (racemic) [Example 65, Rel-(3S, 18′S)-24′-fluoro-8′,11′-dioxa-13′-azaspiro[morpholine-3,17′-tetracyclo[18.3.1.0^2,70.0^13,18]tetracosane]-1′(24′),2′(7′),3′,5′,20′,22′-hexaene-5,12′-dione], the EC50 was greater than 10000 nM.

For `O=C1CCC2(CCCN3C(=O)COc4ccccc4[C@H]4CC[C@H](CC4)OCC32)N1` (mixture of isomers) [Example 69, Rel-(1′s,2R,16′R,19′s)-8′,18′-dioxa-11′-azaspiro[pyrrolidine-2,15′-tetracyclo-[17.2.2.0^2,70.0^11,16]tricosane]-2′(7′),3′,5′-triene-5,10′-dione], the EC50 lay in the range of 100 to 1000 nM.

Regarding `O=C1COc2ccccc2[C@H]2CC[C@H](CC2)OCC2N1CCCC21COC(C(F)(F)F)N1` (mixture of isomers) [Example 70, Rel-(1′s,3S,16′R,19′s)-5-(trifluoromethyl)-8′,18′-dioxa-11′-azaspiro[1,4-oxazolidine-3,15′-tetracyclo[17.2.2.0^2,70.0^11,16]tricosane]-2′(7′),3′,5′-trien-10′-one], the EC50 is 100 to 1000 nM.

Regarding `O=C1COCC2(CCCN3C(=O)C4(CC4)COc4cccc(F)c4[C@H]4CC[C@H](CC4)OCC32)N1` (mixture of isomers) [Example 72, (1′s,20′s)-3′-fluorodispiro [cyclopropane-1,10′-[8,19]dioxa-[12]azatetracyclo [18.2.2.0^2,^7.0^12,^17]tetracosane-16′,3″- morpholine]-2′,4′,6′-triene-5″,11′-dione], the EC50 was less than 100 nM.

Consider `O=C1COCC2(CCCN3C(=O)CCCCOc4cccc(n4)[C@H]4CC[C@H](CC4)OCC32)N1` (mixture of isomers) [Example 76, (1′s,21′s)-7′,20′-dioxa-13′,26′-diazaspiro[morpholine-3,17′-tetracyclo[19.2.2.1^2,60.0^13,18]hexacosane]-2′,4′,6′(26′)-triene-5,12′-dione], for which the EC50 is less than 100 nM.

As to `CC1CC(=O)N2CCC3(COCC(=O)N3)C2CO[C@H]2CC[C@H](CC2)c2ccccc2O1` (relative stereo) [Example 4, rel-(1′s,3S,16′R,19′s)-9′-methyl-8′,18′-dioxa-12′-azaspiro[morpholine-3,15′-tetracyclo[17.2.2.0^2,70.0^12,16]tricosane]-2′(7′),3′,5′-triene-5,11′-dione], the EC50 was in the range of 100 to 1000 nM.

As to `O=C1COCC2(CCN3C(=O)CC(C(F)(F)F)Oc4ccccc4[C@H]4CC[C@H](CC4)OCC32)N1` (relative stereo) [Example 6, rel-(1′s,3S,16′R,19′s)-9′-(trifluoromethyl)-8′,18′-dioxa-12′-azaspiro[morpholine-3,15′-tetracyclo[17.2.2.0^2,70.0^12,16]tricosane]-2′(7′),3′,5′-triene-5,11′-dione], the EC50 lay within 1000 to 10000 nM.

For the molecule `O=C1NC2(CCN3C(=O)CCOc4ccccc4[C@H]4CC[C@H](CC4)OCC32)COC1F` (relative stereo) [Example 8, rel-(1′s,3S,16′R,19′s)-6-fluoro-8′,18′-dioxa-12′-azaspiro[morpholine-3,15′-tetracyclo[17.2.2.0^2,70.0^12,16]tricosane]-2′(7′),3′,5′-triene-5,11′-dione], the EC50 is less than 100 nM.

In the case of `C[C@@H]1CC2(COCC(=O)N2)C2CO[C@H]3CC[C@H](CC3)c3ccccc3OCCC(=O)N21` (relative stereo) [Example 13, rel-(1′s,3S, 13′R,16′R,19′s)-13′-methyl-8′,18′-dioxa-12′-azaspiro[morpholine-3,15′-tetracyclo[17.2.2.0^2,70.0^12,16]tricosane]-2′(7′),3′,5′-triene-5,11′-dione], the EC50 was less than 100 nM.

With `O=C1COc2ccccc2[C@H]2CC[C@H](CC2)OC[C@@H]2N1CCC[C@@]21CO[C@](F)(C(F)(F)F)C(=O)N1` (relative stereo) [Example 71a, rel-(1′s,3S,16′R,19′s)-6 (R)-fluoro-6-(trifluoromethyl)-8′,18′-dioxa-11′-azaspiro[morpholine-3,15′-tetracyclo[17.2.2.0^2,70.0^11,16]tricosane]-2′(7′),3′,5′-triene-5,10′-dione], the EC50 is less than 100 nM.

On to `O=C1COC[C@@]2(CCN3C(=O)CCOc4ccccc4[C@H]4CC[C@H](CC4)OC[C@H]32)N1` (single isomer, unassigned) [Example 1a], for which the EC50 is less than 100 nM.

For `O=C1COC[C@]2(CCN3C(=O)CCOc4ccccc4[C@H]4CC[C@H](CC4)OC[C@@H]32)N1` (single isomer, unassigned) [Example 1b], the EC50 was greater than 10000 nM.

With `C[C@H]1CC(=O)N2CC[C@]3(COCC(=O)N3)[C@H]2CO[C@H]2CC[C@H](CC2)c2ccccc2O1` (single isomer, unassigned) [Example 4a], the EC50 is greater than 10000 nM.

For the molecule `C[C@H]1CC(=O)N2CC[C@@]3(COCC(=O)N3)[C@@H]2CO[C@H]2CC[C@H](CC2)c2ccccc2O1` (single isomer, unassigned) [Example 4b, (1′s, 3S,9′S,16′R,19′s)-9′-methyl-8′,18′-dioxa-12′-azaspiro[morpholine-3,15′-tetracyclo[17.2.2.0^2,70.0^12,16]tricosane]-2′(7′),3′,5′-triene-5,11′-dione], the EC50 is 100 to 1000 nM.

Consider `C[C@@H]1CC(=O)N2CC[C@@]3(COCC(=O)N3)[C@@H]2CO[C@H]2CC[C@H](CC2)c2ccccc2O1` (single isomer, unassigned) [Example 4c], for which the EC50 lay within 100 to 1000 nM.

For the molecule `C[C@@H]1CC(=O)N2CC[C@]3(COCC(=O)N3)[C@H]2CO[C@H]2CC[C@H](CC2)c2ccccc2O1` (single isomer, unassigned) [Example 4d], the EC50 was greater than 10000 nM.

On to `C[C@@H]1COc2ccccc2[C@H]2CC[C@H](CC2)OC[C@H]2N(CC[C@]23COCC(=O)N3)C1=O` (single isomer, unassigned) [Example 5a], for which the EC50 is greater than 10000 nM.

For `C[C@H]1COc2ccccc2[C@H]2CC[C@H](CC2)OC[C@H]2N(CC[C@]23COCC(=O)N3)C1=O` (single isomer, unassigned) [Example 5b], the EC50 was greater than 10000 nM.

On to `O=C1COC[C@@]2(CCN3C(=O)CCOc4cccc(F)c4[C@H]4CC[C@H](CC4)OC[C@H]32)N1` (single isomer, unassigned) [Example 10a], for which the EC50 is less than 100 nM.

With `O=C1COC[C@]2(CCN3C(=O)CCOc4cccc(F)c4[C@H]4CC[C@H](CC4)OC[C@@H]32)N1` (single isomer, unassigned) [Example 10b], the EC50 was greater than 10000 nM.

For `C[C@@H]1C[C@@]2(COCC(=O)N2)[C@@H]2CO[C@H]3CC[C@H](CC3)c3ccccc3OCCC(=O)N12` (single isomer, unassigned) [Example 13a], the EC50 is less than 100 nM.

For `C[C@@H]1C[C@]2(COCC(=O)N2)[C@H]2CO[C@H]3CC[C@H](CC3)c3ccccc3OCCC(=O)N12` (single isomer, unassigned) [Example 13b], the EC50 was in the range of 100 to 1000 nM.

Regarding `C[C@@H]1C[C@@]2(COCC(=O)N2)[C@@H]2CO[C@H]3CC[C@H](CC3)c3cccc(F)c3OCC(=O)N12` (single isomer, unassigned) [Example 15a], the EC50 was less than 100 nM.
